Laboratory results reported in ChEMBL document CHEMBL4190273, “Mushroom-Derived Indole Alkaloids” (J Nat Prod, 2017).
In brackets after ≈: the same amount, converted by molar mass. *1 amine or outer side, *2 acyl side, *3 side chain or, on linkers, in order; H or OH if unused. Where a SMILES comes first, the peptide text is derived from it. [ ]: non-standard residue; d: D form. X1 = C[C@@H]([C@H](C)OC(=O)CC(C)(C)O)[C@@H](C(=O)[*:2])N(C)[*:1]; X5 = O=C([C@@H]1C[C@@]2(O)c3ccccc3N(O)[C@H]2N1[*:1])[*:2]; X6 = CC(=O)O[C@@H](C)[C@H](C)[C@@H](C(=O)[*:2])N(C)[*:1]; X3 = O=C([C@@H]1C[C@@]2(O)c3ccccc3N[C@H]2N1[*:1])[*:2]; X7 = CC(=O)O[C@@H](C(=O)[*:2])N(C)[*:1]; NMeVal(β-OH) = CN[C@H](C(=O)O)C(C)(C)O; X2 = CC(=O)O[C@H](C(=O)[*:2])N(C)[*:1]; NMeI = CC[C@H](C)[C@H](NC)C(=O)O; X4 = CN([C@H](O)C(=O)[*:2])[*:1]; NMeV = CN[C@H](C(=O)O)C(C)C; Sar = CNCC(=O)O

Assays:
[1] = Toxicity in ip dosed mouse; assay type: organism-based; conditions: in vivo
[2] = system: Mycobacterium tuberculosis; assay: Antimycobacterial activity against Mycobacterium tuberculosis H37Ra; assay type: functional
[3] = system: Corynebacterium glutamicum; assay: Antibacterial activity against Corynebacterium lilium assessed as diameter of inhibition zone at 50 ug measured after 24 hrs by agar diffusion method; assay type: functional; conditions: read-out: DIZ
Staphylococcus aureus = assay: Antibacterial activity against Staphylococcus aureus R-209 assessed as diameter of inhibition zone at 50 ug measured after 24 hrs by agar diffusion method; assay type: functional; conditions: R-209, 24 h, read-out: DIZ
Bacillus subtilis [4] = assay: Antibacterial activity against Bacillus subtilis IAM 1609 assessed as diameter of inhibition zone at 50 ug measured after 24 hrs by agar diffusion method; assay type: functional; conditions: IAM 1609, 24 h, read-out: DIZ
Bacillus subtilis [5] = assay: Antibacterial activity against Bacillus subtilis IFO-12732 assessed as diameter of inhibition zone at 50 ug measured after 24 hrs by agar diffusion method; assay type: functional; conditions: IFO-12732, 24 h, read-out: DIZ
Mus musculus = assay: Antithrombotic activity in ICR mouse assessed as inhibition of platelet aggregation at 20 mg/kg, po measured after 1 hr relative to control; assay type: functional
Meloidogyne incognita = assay: Nematicidal activity against Meloidogyne incognita; assay type: functional
[6] = Therapeutic Index, ratio of CC50 for human C8166 cells to EC50 for HIV1 3B infected in human C8166 cells; assay type: toxicity, cell-based; conditions: HIV-1 3B infected C8166 cells, read-out: Ratio CC50/EC50
[7] = system: Human immunodeficiency virus 1; assay: Antiviral activity against HIV1 3B infected in human C8166 cells assessed as inhibition of virus-induced syncytia formation after 3 days; assay type: functional, organism-based; conditions: Human immunodeficiency virus 1, 3B, C8166, 72 h

For CC[C@H](C)[C@@H]1NC(=O)CNC(=O)[C@@H]2Cc3c([nH]c4cc(O)ccc34)[S+]([O-])C[C@H](NC(=O)CNC1=O)C(=O)N[C@@H](CC(N)=O)C(=O)N1C[C@H](O)C[C@H]1C(=O)N[C@@H]([C@@H](C)[C@@H](O)CO)C(=O)N2 (some centres undefined), the LD50 [1] was 0.2 to 0.5 mg/kg.
For CC[C@H](C)[C@@H]1NC(=O)CNC(=O)[C@@H]2Cc3c([nH]c4cc(O)ccc34)[S+]([O-])C[C@H](NC(=O)CNC1=O)C(=O)N[C@@H](CC(N)=O)C(=O)N1C[C@H](O)C[C@H]1C(=O)N[C@@H]([C@@H](C)[C@H](C)O)C(=O)N2 (some centres undefined), the LD50 [1] was 0.2 to 0.5 mg/kg.
CC[C@H](C)[C@@H]1NC(=O)CNC(=O)[C@@H]2Cc3c([nH]c4cc(O)ccc34)[S+]([O-])C[C@H](NC(=O)CNC1=O)C(=O)N[C@@H](CC(=O)O)C(=O)N1C[C@H](O)C[C@H]1C(=O)N[C@@H]([C@@H](C)[C@@H](O)CO)C(=O)N2 (some centres undefined) showed an LD50 [1] of 0.2 to 0.5 mg/kg.
Work on C=CC(C)(C)c1[nH]c2c(CC=C(C)C)cc(CC=C(C)C)cc2c1C[C@H]1NC(=O)[C@@H](C)NC1=O yielded an MIC [2] of 170 µM (≈ 78.4 µg/mL).
Molecule CC[C@@](C)(NC(=O)C(C)(C)NC(=O)[C@@H](NC(=O)[C@H](Cc1c[nH]c2ccccc12)NC(C)=O)C(C)C)C(=O)N[C@@H](C)C(=O)N[C@@H](CCC(N)=O)C(=O)N[C@@H](C)C(=O)NC(C)(C)C(=O)N[C@@H](CO)C(=O)NC(C)(C)C(=O)N[C@@H](C)C(=O)N[C@@H](CC(C)C)C(=O)NC(C)(C)C(=O)N[C@@H](CCC(N)=O)C(=O)N[C@H](CO)CC(C)C has a zone of inhibition at 50 µg/disc [3] of 13 to 18 mm, a zone of inhibition at 50 µg/disc (Staphylococcus aureus) of 13 to 18 mm and a zone of inhibition at 50 µg/disc (Bacillus subtilis [4]) of 13 to 18 mm. For the same molecule, the zone of inhibition at 50 µg/disc (Bacillus subtilis [5]) was 13 to 18 mm.
Molecule N[C@@H](Cc1c[nH]c2ccccc12)C(=O)NCC(=O)N[C@@H](CS)C(=O)O (H-Trp-Gly-Cys-OH) has an inhibition in vivo at 20 mg/kg (Mus musculus) of 83.3%.
CC[C@H](C)[C@@H]1NC(=O)[C@H](C(C)C)N(C)C(=O)[C@@H]2C[C@@]3(O)c4ccccc4N(O)[C@H]3N2C(=O)CN(C)C(=O)[C@H]([C@@H](C)CC)N(C)C(=O)[C@H](C(C)C)NC(=O)CN(C)C(=O)[C@H]([C@@H](C)CC)N(C)C(=O)[C@H](C(C)(C)O)N(C)C(=O)CN(C)C(=O)[C@H](C(C)C)N(C)C(=O)[C@H](C(C)C)N(C)C1=O (HELM PEPTIDE1{I.[meV].[meV].[Sar].[CN([C@H](C(=O)[*:2])C(C)(C)O)[*:1]].[meI].[Sar].V.[meI].[Sar].[O=C([C@@H]1C[C@@]2(O)c3ccccc3N(O)[C@H]2N1[*:1])[*:2]].[meV]}$PEPTIDE1,PEPTIDE1,1:R1-12:R2$$$V2.0) showed an LD90 (Meloidogyne incognita) of 2 to 5 µg/mL.
CC[C@H](C)[C@@H]1NC(=O)[C@H](C(C)C)N(C)C(=O)[C@@H]2C[C@@]3(O)c4ccccc4N[C@H]3N2C(=O)CN(C)C(=O)[C@H]([C@@H](C)CC)N(C)C(=O)[C@H](C(C)C)NC(=O)CN(C)C(=O)[C@H]([C@@H](C)CC)N(C)C(=O)[C@H](C(C)(C)O)N(C)C(=O)CN(C)C(=O)[C@H](C(C)C)N(C)C(=O)[C@H](C(C)C)N(C)C1=O (HELM PEPTIDE1{I.[meV].[meV].[Sar].[CN([C@H](C(=O)[*:2])C(C)(C)O)[*:1]].[meI].[Sar].V.[meI].[Sar].[O=C([C@@H]1C[C@@]2(O)c3ccccc3N[C@H]2N1[*:1])[*:2]].[meV]}$PEPTIDE1,PEPTIDE1,1:R1-12:R2$$$V2.0) showed an LD90 (Meloidogyne incognita) of 2 to 5 µg/mL.
With CC[C@H](C)[C@@H]1NC(=O)[C@H](C(C)C)N(C)C(=O)[C@H](Cc2c[nH]c3ccccc23)NC(=O)CN(C)C(=O)[C@H]([C@@H](C)CC)N(C)C(=O)[C@H](C(C)C)NC(=O)CN(C)C(=O)[C@H]([C@@H](C)CC)N(C)C(=O)[C@H](C(C)C)N(C)C(=O)CN(C)C(=O)[C@H](C(C)C)N(C)C(=O)[C@H](C(C)C)N(C)C1=O (HELM PEPTIDE1{I.[meV].[meV].[Sar].[meV].[meI].[Sar].V.[meI].[Sar].W.[meV]}$PEPTIDE1,PEPTIDE1,1:R1-12:R2$$$V2.0) the LD90 (Meloidogyne incognita) was 2 to 5 µg/mL.
With CC(=O)N[C@@H](Cc1c[nH]c2ccccc12)C(=O)N[C@H](C(=O)NC(C)(C)C(=O)NC(C)(C)C(=O)N[C@@H](C)C(=O)N[C@@H](CCC(N)=O)C(=O)N[C@@H](C)C(=O)NC(C)(C)C(=O)N[C@@H](CO)C(=O)NC(C)(C)C(=O)N[C@@H](C)C(=O)N[C@@H](CC(C)C)C(=O)NC(C)(C)C(=O)N[C@@H](CCC(N)=O)C(=O)N[C@H](CO)CC(C)C)C(C)C (HELM PEPTIDE1{[ac].W.V.[Aib].[Aib].A.Q.A.[Aib].S.[Aib].A.L.[Aib].Q.[CC(C)C[C@@H](CO)N[*:1]]}$$$$V2.0) the zone of inhibition at 50 µg/disc [3] was 13 to 18 mm, the zone of inhibition at 50 µg/disc (Staphylococcus aureus) was 13 to 18 mm and the zone of inhibition at 50 µg/disc (Bacillus subtilis [4]) was 13 to 18 mm. For the same molecule, the zone of inhibition at 50 µg/disc (Bacillus subtilis [5]) was 13 to 18 mm.
CC[C@H](C)[C@@H]1NC(=O)[C@H](C(C)C)N(C)C(=O)[C@@H]2C[C@@]3(O)c4ccccc4N(O)[C@H]3N2C(=O)CN(C)C(=O)[C@H]([C@@H](C)CC)N(C)C(=O)[C@H](C(C)C)NC(=O)[C@@H](O)N(C)C(=O)[C@H]([C@@H](C)CC)N(C)C(=O)[C@H](C(C)(C)O)N(C)C(=O)CN(C)C(=O)[C@H](C(C)C)N(C)C(=O)[C@H](C(C)C)N(C)C1=O (cyclo(I[NMeV][NMeV][Sar][NMeVal(β-OH)][NMeI][X4]V[NMeI][Sar][X5][NMeV])) gave an LD90 (Meloidogyne incognita) of 2 to 5 µg/mL.
CC[C@H](C)[C@@H]1NC(=O)[C@H](C(C)C)N(C)C(=O)[C@@H]2C[C@@]3(O)c4ccccc4N[C@H]3N2C(=O)CN(C)C(=O)[C@H]([C@@H](C)CC)N(C)C(=O)[C@H](C(C)C)NC(=O)[C@@H](OC(C)=O)N(C)C(=O)[C@H]([C@@H](C)[C@H](C)OC(=O)CC(C)(C)O)N(C)C(=O)[C@H](C(C)(C)O)N(C)C(=O)CN(C)C(=O)[C@H](C(C)C)N(C)C(=O)[C@H](C(C)C)N(C)C1=O (cyclo(I[NMeV][NMeV][Sar][NMeVal(β-OH)][X1][X2]V[NMeI][Sar][X3][NMeV])) showed an LD90 (Meloidogyne incognita) of 2 to 5 µg/mL.
Molecule CC[C@H](C)[C@@H]1NC(=O)[C@H](C(C)C)N(C)C(=O)[C@@H]2C[C@@]3(O)c4ccccc4N(O)[C@H]3N2C(=O)CN(C)C(=O)[C@H]([C@@H](C)CC)N(C)C(=O)[C@H](C(C)C)NC(=O)[C@@H](OC(C)=O)N(C)C(=O)[C@H]([C@@H](C)[C@H](C)OC(=O)CC(C)(C)O)N(C)C(=O)[C@H](C(C)(C)O)N(C)C(=O)CN(C)C(=O)[C@H](C(C)C)N(C)C(=O)[C@H](C(C)C)N(C)C1=O (cyclo(I[NMeV][NMeV][Sar][NMeVal(β-OH)][X1][X2]V[NMeI][Sar][X5][NMeV])) has an LD90 (Meloidogyne incognita) of 2 to 5 µg/mL.
Work on CC[C@H](C)[C@@H]1NC(=O)[C@H](C(C)C)N(C)C(=O)[C@@H]2C[C@@]3(O)c4ccccc4N[C@H]3N2C(=O)CN(C)C(=O)[C@H]([C@@H](C)CC)N(C)C(=O)[C@H](C(C)C)NC(=O)[C@@H](O)N(C)C(=O)[C@H]([C@@H](C)[C@H](C)OC(=O)CC(C)(C)O)N(C)C(=O)[C@H](C(C)(C)O)N(C)C(=O)CN(C)C(=O)[C@H](C(C)C)N(C)C(=O)[C@H](C(C)C)N(C)C1=O (cyclo(I[NMeV][NMeV][Sar][NMeVal(β-OH)][X1][X4]V[NMeI][Sar][X3][NMeV])) yielded an LD90 (Meloidogyne incognita) of 2 to 5 µg/mL.
CC[C@H](C)[C@@H]1NC(=O)[C@H](C(C)C)N(C)C(=O)[C@@H]2C[C@@]3(O)c4ccccc4N(O)[C@H]3N2C(=O)CN(C)C(=O)[C@H]([C@@H](C)CC)N(C)C(=O)[C@H](C(C)C)NC(=O)[C@@H](OC(C)=O)N(C)C(=O)[C@H]([C@@H](C)[C@H](C)OC(C)=O)N(C)C(=O)[C@H](C(C)(C)O)N(C)C(=O)CN(C)C(=O)[C@H](C(C)C)N(C)C(=O)[C@H](C(C)C)N(C)C1=O (cyclo(I[NMeV][NMeV][Sar][NMeVal(β-OH)][X6][X2]V[NMeI][Sar][X5][NMeV])) gave an LD90 (Meloidogyne incognita) of 2 to 5 µg/mL.
CC[C@H](C)[C@@H]1NC(=O)[C@H](C(C)C)N(C)C(=O)[C@@H]2C[C@@]3(O)c4ccccc4N[C@H]3N2C(=O)CN(C)C(=O)[C@H]([C@@H](C)CC)N(C)C(=O)[C@H](C(C)C)NC(=O)[C@H](OC(C)=O)N(C)C(=O)[C@H]([C@@H](C)[C@H](C)OC(C)=O)N(C)C(=O)[C@H](C(C)(C)O)N(C)C(=O)CN(C)C(=O)[C@H](C(C)C)N(C)C(=O)[C@H](C(C)C)N(C)C1=O (cyclo(I[NMeV][NMeV][Sar][NMeVal(β-OH)][X6][X7]V[NMeI][Sar][X3][NMeV])) gave an LD90 (Meloidogyne incognita) of 2 to 5 µg/mL.
O=C(O)c1cc2c([nH]c3ccccc32)c(-c2ccc(CO)o2)n1 [FLAZINE] showed a selectivity ratio [6] of 12.1 and an EC50 [7] of 2360 nM.
